The source made the active and inactive calls. No cut-off for these calls is given here.
Experiments:
[1] = test system: NCTC-2544; assay: Cytotoxicity against human NCTC-2544 cells assessed as reduction in cell viability at 30 uM up to 72 hrs by WST8 assay; type: cell-based; settings: nctc-2544, 72 h
[2] = Antioxidant activity assessed as trolox equivalents of AAPH-induced radical scavenging activity by ORAC-FL assay; type: functional
[3] = test system: DNA; assay: Antioxidant activity assessed as protection against ferrous ions and dioxygen-induced free radical-mediated DNA strand break in pEMBL8 supercoiled DNA preincubated with DNA followed by (NH4)2Fe(SO4)2.6H2O addition measured after 6 mins by ethidium bromide staining based agarose gel electrophoresis method; type: functional
[4] = test system: NCTC-2544; assay: Antioxidant activity in human NCTC-2544 cells assessed as reduction in H2O2-induced ROS level at 30 uM preincubated with cells followed by H2O2 addition measured after 24 hrs by DCFH-DA staining based fluorescence assay; type: functional
[5] = test system: NCTC-2544; assay: Antioxidant activity in human NCTC-2544 cells assessed as reduction in H2O2-induced ROS level at 30 uM preincubated up to 3 hrs followed by H2O2 addition measured for 30 mins by DCFH-DA staining based fluorescence assay; type: functional, cell-based
[6] = test system: NCTC-2544; assay: Antioxidant activity in human NCTC-2544 cells assessed as reduction in intracellular oxidation level at 30 uM after 3 hrs by DCFH-DA staining based fluorescence assay; type: functional, cell-based
[7] = test system: NCTC-2544; assay: Antioxidant activity in human NCTC-2544 cells assessed as reduction in intracellular oxidation level at 30 uM after 1 hr by DCFH-DA staining based fluorescence assay; type: functional, cell-based
[8] = test system: NCTC-2544; assay: Antioxidant activity in human NCTC-2544 cells assessed as reduction in intracellular oxidation level at 30 uM after 24 hrs by DCFH-DA staining based fluorescence assay; type: functional, cell-based
[9] = test system: NCTC-2544; assay: Cytotoxicity against human NCTC-2544 cells assessed as reduction in cell viability at 30 uM at 72 hrs by WST8 assay relative to control; type: cell-based; settings: nctc-2544, 72 h

SMILES	EC50 [3] [µM]	Activity [1]	Activity [2] [equiv]	Activity [4]	Activity [5]	Activity [6]	Activity [7]	Activity [8]	Activity [9] [%]
COC(=O)NN1C(C)=C(C(=O)OC)C2c3ccc(OC)c(OC)c3CN3CCc4cc5c(cc4C231)OCO5 (centres undefined)	683	Non-Toxic	855	inactive	Active	–	–	–	–
COc1ccc2c(c1OC)CN1CCc3cc4c(cc3C13C2C(C(=O)Nc1ccccc1)=C(C)N3NC(=O)Nc1ccccc1)OCO4 (centres undefined)	140	Non-Toxic	185	inactive	Active	–	–	–	–
CCOC(=O)NN1C(C)=C(C(=O)OCC)C2c3ccc(OC)c(OC)c3CN3CCc4cc5c(cc4C231)OCO5 (centres undefined)	407	Non-Toxic	955	inactive	Active	–	Active	–	–
COc1ccc2c(c1OC)CN1CCc3cc4c(cc3C1C2)OCO4 (centres undefined) [TETRAHYDROBERBERINE]	93	–	1580	inactive	Active	–	–	inactive	–
COc1ccc2c(c1OC)CN1CCc3cc4c(cc3C13C2C(P(=O)(OC)OC)=C(C)N3NC(=O)OC(C)(C)C)OCO4 (centres undefined)	196	–	1130	inactive	Active	–	–	–	35

Second part, led by results:

EC50 [3] [µM]	SMILES	Activity [1]	Activity [2] [equiv]	Activity [4]	Activity [5]	Activity [6]	Activity [7]	Activity [8]	Activity [9] [%]
74	CCOC(=O)C1=C(C)N(NC(=O)OC(C)(C)C)C23c4cc5c(cc4CCN2Cc2c(ccc(OC)c2OC)C13)OCO5 (centres undefined)	Non-Toxic	1560	37%	Active	Active	Active	Active	–
63	COC(=O)C1=C(C)N(NC(=O)Nc2ccccc2)C23c4cc5c(cc4CCN2Cc2c(ccc(OC)c2OC)C13)OCO5 (centres undefined)	Non-Toxic	1160	inactive	Active	–	–	–	–
119	COC(=O)C1=C(C)N(NC(=O)OC(C)(C)C)C23c4cc5c(cc4CCN2Cc2c(ccc(OC)c2OC)C13)OCO5 (centres undefined)	Non-Toxic	1470	inactive	Active	–	–	–	–

Reference: ChEMBL document CHEMBL4152359, “Synthesis and biological evaluation of novel heteroring-annulated pyrrolino-tetrahydroberberine analogues as antioxidant agents” (Bioorg Med Chem, 2018)
